Source: paper PMC5048153 (Scientific Reports, 2016)

Legend:
[1] = tested on: L02 cells; assay: Cytotoxicity on L02 cells (MTT); format: cell-based, human; settings: after treatment; for inhibition at 100 µM: Homo sapiens, L02, 100μM, read-out: IR (inhibitory rate) L02
Description: (§1) Human normal hepatic L02 cells, human embryonic kidney cell line 293 cells (HEK293) and Rattus myoblast cell line H9C2 cells were respectively seeded in 96-well plates at a density of 4 × 10^3 cells per well and cultured in the 1640 or DMEM medium, with the supplement of 10% fetal bovine serum, penicillin (100 unit/ml), streptomycin (100 μg/ml) in a humidified incubator with 5% CO2 for 24 h. […] The cytotoxicities of the compounds were evaluated by MTT method.

[2] = tested on: corticosterone-injured PC12 cells; assay: Protective effects on corticosterone-injured PC12 cells (MTT); format: cell-based, rat; parameters: key to PR (protection rate), Table S1: compounds did not shown protection effects on corticosterone-injured PC12 cells; settings: 24 h after treatment; for PR (protection rate), Table S1: 1.25µM; for PR (protection rate): 1.25 μM, 200 μM corticosterone
Description: PC12 cells were purchased from American Type Culture Collection and were maintained in DMEM medium supplemented with penicillin (100 unit/ml), streptomycin (100 μg/ml), 5% fetal bovine serum (FBS), and 10% horse serum at 37 °C in humidified atmosphere with 5% CO2. The detailed procedures were performed referring to the reported literatures. Briefly, PC12 cells of logarithmic growth phase were collected, re-suspended and then seeded at a density of 1 × 10^5 cells per well in 96-well plates and cultured in the DMEM medium with 5% horse serum, 10% FBSfor 24 h.
After incubation with compounds, 20 μl of 5 mg/ml MTT solution was added to each well and cultured at 37 °C for 2 h–4 h. Then, the culture medium was removed, and 150 μl dimethyl sulfoxide(DMSO) was added to each well for 15 min at room temperature. The absorbance of each well was measured at 570 nm using a microplate reader. The protective rates (PR) were calculated according to equation (1).

[3] = tested on: HEK293 cells; assay: Cytotoxicity on HEK293 cells (MTT); format: cell-based, human; settings: after treatment; for inhibition at 100 µM: Homo sapiens, HEK293, 100μM, read-out: IR (inhibitory rate) HEK293
Description: as §1

[4] = biological target: T1, 5-HT2C receptor (Homo sapiens, UniProt P28335); assay: FLIPR assay for 5-HT2C antagonism; format: cell-based
T1 sequence (P28335 33-458): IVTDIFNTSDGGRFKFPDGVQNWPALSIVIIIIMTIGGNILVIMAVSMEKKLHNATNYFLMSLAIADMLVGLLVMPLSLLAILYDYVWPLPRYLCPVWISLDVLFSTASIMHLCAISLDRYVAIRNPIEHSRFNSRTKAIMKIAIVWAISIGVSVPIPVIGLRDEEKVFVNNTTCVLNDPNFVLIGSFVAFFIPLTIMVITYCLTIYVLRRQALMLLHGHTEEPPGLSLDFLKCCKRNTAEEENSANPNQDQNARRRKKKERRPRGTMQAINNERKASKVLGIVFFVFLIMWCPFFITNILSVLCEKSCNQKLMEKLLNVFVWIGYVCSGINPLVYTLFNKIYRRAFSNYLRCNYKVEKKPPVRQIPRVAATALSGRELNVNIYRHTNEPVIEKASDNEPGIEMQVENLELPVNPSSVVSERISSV
Description: Seed cells at the density of 10 K cell/well, 37 °C, 5% CO2 incubate for 16–24 hours, then loading cells with 30 ul of Calcium 5 and 37 °C, 5% CO2 incubate for 1 hour. After transfer compound to compound plate with 30 ul Assay Buffer by Echo, add 15 ul/well of compound, incubate for 10 mins.

Which results are given for `COc1ccc2c(c1)C(CCNC(=O)c1cc(Cl)ccc1Br)=NCC2.O=C(O)C(=O)O` [6a-27, 2-Bromo-5-chloro-N-(2-(7-methoxy-3,4-dihydroisoquinolin-1-yl)ethyl)benzamide oxalate]?
inhibition at 100 µM [1]: 45.9%; PR (protection rate), Table S1 [2]: 10.1%; PR (protection rate) [2]: above 10%; inhibition at 100 µM [3]: 51.8%

What does the source list for `COc1ccc2c(c1)C(CCNC(=O)c1cc(C(F)(F)F)ccc1Br)=NCC2.O=C(O)C(=O)O` [6a-28, 2-Bromo-N-(2-(7-methoxy-3,4-dihydroisoquinolin-1-yl)ethyl)-5-(trifluoromethyl)benzamide oxalate]?
inhibition at 100 µM [1]: 43.7%; PR (protection rate), Table S1 [2]: 2.4%; inhibition at 100 µM [3]: 58.5%

`COc1ccc2c(c1)C(CCNC(=O)c1cncc(Br)c1)=NCC2.O=C(O)C(=O)O` [6a-29, 5-Bromo-N-(2-(7-methoxy-3,4-dihydroisoquinolin-1-yl)ethyl)nicotinamide oxalate] was tested. Which inhibition at 100 µM [1] did it give?
The inhibition at 100 µM was 14.4%.

What about the “PR (protection rate), Table S1” value [2] of the same compound?
Its value is “-”.

And the inhibition at 100 µM [3]?
The inhibition at 100 µM was 29.5%.

With `COc1ccc2c(c1)C(CCNC(=O)c1cc(Br)cnc1Cl)=NCC2.O=C(O)C(=O)O` [6a-30, 5-Bromo-2-chloro-N-(2-(7-methoxy-3,4-dihydroisoquinolin-1-yl)ethyl)nicotinamide oxalate] as the compound, how does the inhibition at 100 µM [1] read?
The inhibition at 100 µM was 47.5%.

And the “PR (protection rate), Table S1” value [2]?
The value was “-”.

And the inhibition at 100 µM [3]?
The inhibition at 100 µM was 49.1%.

How did the inhibition at 100 µM [1] turn out when `COc1ccc2c(c1)C(CCNC(=O)c1ccc(Br)nc1)=NCC2.O=C(O)C(=O)O` [6a-31, 6-Bromo-N-(2-(7-methoxy-3,4-dihydroisoquinolin-1-yl)ethyl)nicotinamide oxalate] was run?
The inhibition at 100 µM was 46.1%.

And the “PR (protection rate), Table S1” value [2]?
The value was 0.2%.

What about the inhibition at 100 µM [3] of the same compound?
The inhibition at 100 µM was 56.1%.

For `COc1ccc2c(c1)C(CCNC(=O)NC1CC1)=NCC2.O=C(O)C(=O)O` [6b-1, 1-Cyclopropyl-3-(2-(7-methoxy-3,4-dihydroisoquinolin-1-yl)ethyl)urea oxalate], which inhibition at 100 µM [1] is on record?
The inhibition at 100 µM was 27.2%.

What about the “PR (protection rate), Table S1” value [2] of the same compound?
Its value is “-”.

And the inhibition at 100 µM [3]?
Its inhibition at 100 µM is 19.5%.

`COc1ccc2c(c1)C(CCNC(=O)Nc1cccc(Cl)c1)=NCC2.O=C(O)C(=O)O` [6b-2, 1-(3-Chlorophenyl)-3-(2-(7-methoxy-3,4-dihydroisoquinolin-1-yl)ethyl)urea oxalate] was tested. Which inhibition at 100 µM [1] did it give?
The inhibition at 100 µM was 38.9%.

And the “PR (protection rate), Table S1” value [2]?
The value was “-”.

What about the inhibition at 100 µM [3] of the same compound?
Its inhibition at 100 µM is 37.9%.

With `COc1ccc2c(c1)C(CCNC(=O)Nc1ccc(C(F)(F)F)cc1)=NCC2.O=C(O)C(=O)O` [6b-3, 1-(2-(7-Methoxy-3,4-dihydroisoquinolin-1-yl)ethyl)-3-(4-(trifluoromethyl)phenyl)urea oxalate] as the compound, how does the inhibition at 100 µM [1] read?
The inhibition at 100 µM was 35.8%.

What about the “PR (protection rate), Table S1” value [2] of the same compound?
Its value is 10.7%.

What about the “PR (protection rate)” value [2] of the same compound?
Its value is “above 10%”.

And the inhibition at 100 µM [3]?
Its inhibition at 100 µM is 23.2%.

How did the inhibition at 100 µM [1] turn out when `COc1ccc2c(c1)C(CCNC(=O)Nc1ccccc1C(F)(F)F)=NCC2.O=C(O)C(=O)O` [6b-4, 1-(2-(7-Methoxy-3,4-dihydroisoquinolin-1-yl)ethyl)-3-(2-(trifluoromethyl)phenyl)urea oxalate] was run?
Its inhibition at 100 µM is 57.7%.

And the “PR (protection rate), Table S1” value [2]?
The value was 11.9%.

And the “PR (protection rate)” value [2]?
Its value is “above 10%”.

What about the inhibition at 100 µM [3] of the same compound?
The inhibition at 100 µM was 29.2%.

Which inhibition at 100 µM [1] does the source give for `COc1ccc2c(c1)C(CCNC(=O)Nc1cc(Cl)c(Cl)c(Cl)c1)=NCC2.O=C(O)C(=O)O` [6b-5, 1-(2-(7-Methoxy-3,4-dihydroisoquinolin-1-yl)ethyl)-3-(3,4,5-trichlorophenyl)urea oxalate] here?
The inhibition at 100 µM was 40.7%.

What about the “PR (protection rate), Table S1” value [2] of the same compound?
The value was “-”.

What about the inhibition at 100 µM [3] of the same compound?
The inhibition at 100 µM was 40.1%.

Which results are given for `COc1ccc2c(c1)C(CCNC(=O)Nc1c(C)cc(C#N)cc1C)=NCC2.O=C(O)C(=O)O` [6b-6, 1-(4-Cyano-2,6-dimethylphenyl)-3-(2-(7-methoxy-3,4-dihydroisoquinolin-1-yl)ethyl)urea oxalate]?
inhibition at 100 µM [1]: < 20%; PR (protection rate), Table S1 [2]: -; inhibition at 100 µM [3]: < 20%

For `COc1ccc2c(c1)C(CCNC(=O)Nc1ccc(C#N)c(F)c1)=NCC2.O=C(O)C(=O)O` [6b-7, 1-(4-Cyano-3-fluorophenyl)-3-(2-(7-methoxy-3,4-dihydroisoquinolin-1-yl)ethyl)urea oxalate], which inhibition at 100 µM [1] is on record?
Its inhibition at 100 µM is 24.7%.

And the “PR (protection rate), Table S1” value [2]?
Its value is “-”.

What about the inhibition at 100 µM [3] of the same compound?
Its inhibition at 100 µM is 27.2%.

Which results are given for `COc1ccc2c(c1)C(CCNC(=O)Nc1ccc(Br)cn1)=NCC2.O=C(O)C(=O)O` [6b-12, 1-(5-Bromopyridin-2-yl)-3-(2-(7-methoxy-3,4-dihydroisoquinolin-1-yl)ethyl)urea oxalate]?
inhibition at 100 µM [1]: 48.1%; PR (protection rate), Table S1 [2]: 16.3%; PR (protection rate) [2]: above 10%; inhibition at 100 µM [3]: 49.4%

With `COc1ccc2c(c1)C(CCNC(=O)Nc1cccc3ccccc13)=NCC2.O=C(O)C(=O)O` [6b-13, 1-(2-(7-Methoxy-3,4-dihydroisoquinolin-1-yl)ethyl)-3-(naphthalen-1-yl)urea oxalate] as the compound, how does the inhibition at 100 µM [1] read?
Its inhibition at 100 µM is under 20%.

What about the “PR (protection rate), Table S1” value [2] of the same compound?
Its value is “-”.

And the inhibition at 100 µM [3]?
Its inhibition at 100 µM is under 20%.

Which inhibition at 100 µM [1] does the source give for `COc1ccc2c(c1)C(CCNC(=O)Nc1ccc(F)c(Cl)c1)=NCC2.O=C(O)C(=O)O` [6b-14, 1-(3-Chloro-4-fluorophenyl)-3-(2-(7-methoxy-3,4-dihydroisoquinolin-1-yl)ethyl)urea oxalate] here?
The inhibition at 100 µM was 47.7%.

What about the “PR (protection rate), Table S1” value [2] of the same compound?
The value was “-”.

What about the inhibition at 100 µM [3] of the same compound?
Its inhibition at 100 µM is 22.8%.

Which results are given for `COc1ccc2c(c1)C(CCNC(=O)Nc1cccc([N+](=O)[O-])c1)=NCC2.O=C(O)C(=O)O` [6b-15, 1-(2-(7-Methoxy-3,4-dihydroisoquinolin-1-yl)ethyl)-3-(3-nitrophenyl)urea oxalate]?
inhibition at 100 µM [1]: 48.9%; PR (protection rate), Table S1 [2]: -; inhibition at 100 µM [3]: 47.5%

What does the source list for `COc1ccc2c(c1)C(CCNC(=O)Nc1nccs1)=NCC2.O=C(O)C(=O)O` [6b-17, 1-(2-(7-Methoxy-3,4-dihydroisoquinolin-1-yl)ethyl)-3-(thiazol-2-yl)urea oxalate]?
inhibition at 100 µM [1]: 20.1%; PR (protection rate), Table S1 [2]: 13.9%; PR (protection rate) [2]: above 10%; inhibition at 100 µM [3]: 21.9%

For `COc1ccc2c(c1)C(CCNC(=O)Nc1ccc(Cl)c(Cl)c1)=NCC2.O=C(O)C(=O)O` [6b-18, 1-(3,4-Dichlorophenyl)-3-(2-(7-methoxy-3,4-dihydroisoquinolin-1-yl)ethyl)urea oxalate], which inhibition at 100 µM [1] is on record?
The inhibition at 100 µM was 57.5%.

And the “PR (protection rate), Table S1” value [2]?
Its value is 12.8%.

What about the “PR (protection rate)” value [2] of the same compound?
Its value is “above 10%”.

What about the inhibition at 100 µM [3] of the same compound?
Its inhibition at 100 µM is 56.1%.

For `COc1ccc2c(c1)C(CCNC(=O)Nc1ccccc1[N+](=O)[O-])=NCC2` [6b-19, 1-(2-(7-Methoxy-3,4-dihydroisoquinolin-1-yl)ethyl)-3-(2-nitrophenyl)ureaoxalate], which inhibition at 100 µM [1] is on record?
The inhibition at 100 µM was 31.5%.

What about the “PR (protection rate), Table S1” value [2] of the same compound?
The value was “-”.

What about the inhibition at 100 µM [3] of the same compound?
The inhibition at 100 µM was 33.5%.

What does the source list for `COc1ccc2c(c1)C(CCNC(=O)Nc1ccc(CC#N)cc1)=NCC2.O=C(O)C(=O)O` [6b-20, 1-(4-(Cyanomethyl)phenyl)-3-(2-(7-methoxy-3,4-dihydroisoquinolin-1-yl)ethyl)urea oxalate]?
inhibition at 100 µM [1]: 52%; PR (protection rate), Table S1 [2]: -; inhibition at 100 µM [3]: 47.8%

With `COc1ccc2c(c1)C(CCNC(=O)Nc1ccc(Br)cc1)=NCC2` [6b-21, 1-(4-Bromophenyl)-3-(2-(7-methoxy-3,4-dihydroisoquinolin-1-yl)ethyl)ureaoxalate] as the compound, how does the inhibition at 100 µM [1] read?
The inhibition at 100 µM was 38.3%.

What about the “PR (protection rate), Table S1” value [2] of the same compound?
The value was “-”.

And the inhibition at 100 µM [3]?
Its inhibition at 100 µM is 41.2%.

`COc1ccc2c(c1)C(CCNC(=O)Nc1ncccc1Br)=NCC2.O=C(O)C(=O)O` [6b-22, 1-(3-Bromopyridin-2-yl)-3-(2-(7-methoxy-3,4-dihydroisoquinolin-1-yl)ethyl)urea oxalate] was tested. Which inhibition at 100 µM [1] did it give?
Its inhibition at 100 µM is 48.5%.

What about the “PR (protection rate), Table S1” value [2] of the same compound?
The value was “-”.

And the inhibition at 100 µM [3]?
Its inhibition at 100 µM is 46.4%.

Which results are given for `CC[C@@H](CO)NC(=O)[C@@H]1C=C2c3cccc4c3c(cn4C)C[C@H]2N(C)C1` [Methysergide]?
IC50 [4]: 25 nM; inhibition at 100 µM ([4]; read-out: Inhibition 5-HT2C): 101%

“N-(2-(7-Methoxy-3,4-dihydroisoquinolin-1-yl)ethyl)-4-methylbenzamide oxalate [6a-32]” was tested. Which “IR (inhibitory rate) L02” value ([1]; 100μM) did it give?
The value was 43.2%.

And the “PR (protection rate), Table S1” value [2]?
Its value is “-”.

And the “IR (inhibitory rate) HEK293” value ([3]; 100μM)?
The value was 54.8%.
